Data as given in patent publication US20240041877A1, “DOSAGE REGIME AND METHOD FOR TREATING PULMONARY ARTERIAL HYPERTENSION” (Altavant Sciences GmbH, priority 2019, published 2024).

Experiment: Part 2 (MAD): plasma pharmacokinetics after BID oral KAR5585 for 14 days (incl. accumulation ratios and dose proportionality)
Details: for AUC0-12, Day 1 / AUC0-24, Day 14: mean
[1] = 100 mg KAR5585 BID, fasted, Part 2 Cohort 1
[2] = 100 mg KAR5585 BID, fed, Cohort 2
[3] = 100 mg KAR5585 BID, fed, Part 2 Cohort 2
[4] = 100 mg/dose Fasted Cohort 1, Day 1 AM, Geo. Mean
[5] = 100 mg/dose Fasted Cohort 1, Day 1 AM, Mean
[6] = 100 mg/dose Fasted Cohort 1, Day 14, Geo. Mean
[7] = 100 mg/dose Fasted Cohort 1, Day 14, Mean
[8] = 100 mg/dose Fed Cohort 2, Day 1 AM, Geo. Mean
[9] = 100 mg/dose Fed Cohort 2, Day 1 AM, Mean
[10] = 100 mg/dose Fed Cohort 2, Day 1 PM, Geo. Mean
[11] = 100 mg/dose Fed Cohort 2, Day 1 PM, Mean
[12] = 100 mg/dose Fed Cohort 2, Day 7 AM, Geo Mean
[13] = 100 mg/dose Fed Cohort 2, Day 7 AM, Mean
[14] = 100 mg/dose Fed Cohort 2, Day 7 PM, Geo Mean
[15] = 100 mg/dose Fed Cohort 2, Day 7 PM, Mean
[16] = 100 mg/dose Fed Cohort 2, Day 14, Geo Mean
[17] = 100 mg/dose Fed Cohort 2, Day 14, Mean
[18] = 200 mg/dose Fed Cohort 3, Day 1 AM, Geo Mean
[19] = 200 mg/dose Fed Cohort 3, Day 1 AM, Mean
[20] = 200 mg/dose Fed Cohort 3, Day 1 PM, Geo. Mean

Description: Food effect was to be evaluated in Part 1, Period 2.
Pharmacokinetic data were to be summarized descriptively.

Compound: CCOC(=O)[C@@H]1CC2(CCN(c3cc(O[C@H](c4ccc(Cl)cc4-c4ccccc4)C(F)(F)F)nc(N)n3)CC2)CN1 [KAR5585, (S)-ethyl 8-(2-amino-6-((R)-1-(5-chloro-[1,1′-biphenyl]-2-yl)-2,2,2-trifluoroethoxy)pyrimidin-4-yl)-2,8-diazaspiro[4.5]decane-3-carboxylate]
- half-life, Day 14 (100 mg KAR5585 BID, fasted): 2.49 h
- time peak plasma concentrations were reached, Day 1 (100 mg KAR5585 BID, fasted, Cohort 1): 0.75 to 2.0 h
- AUC0-12, Day 1 [1]: 62.8 ng·h/mL
- AUC0-24, Day 14 [1]: 99.8 ng·h/mL
- Mean CL/F, Day 1 (100 mg KAR5585 BID, fed): 2100 L/h
- Mean steady-state CL/F, Day 14 (100 mg KAR5585 BID, fed): 880 L/h
- mean apparent elimination half-life, Day 14 (100 mg KAR5585 BID, fed): 2.73 h
- Cmax (peak mean concentration), Day 1 [2]: 18.4 ng/mL
- Cmax (peak mean concentration), Day 14 [2]: 30 ng/mL
- mean Cmax plasma concentrations, range on all dosing days [2]: 18.4 to 44.1 ng/mL
- median time to peak plasma concentrations, range on all dosing days and times [2]: 0.75 to 4 h
- AUC0-12, Day 1 [3]: 55.5 ng·h/mL
- AUC0-24, Day 14 [3]: 122 ng·h/mL
- C12 [4]: BLQ
- CL/F [4]: 1850 L/h
- Cmax/D [4]: 0.158 (ng/mL)/mg
- AUC0-12 [5]: 62.8 ng·h/mL
- AUC0-∞ [5]: 71.1 ng·h/mL
- C12 [5]: BLQ
- CL/F [5]: 2380 L/h
- Cmax/D [5]: 0.167 (ng/mL)/mg
- t1/2 [5]: 2.23 h
- AUC0-12 [6]: 78.2 ng·h/mL
- AUC0-24 [6]: 82.3 ng·h/mL
- AUC0-24/D [6]: 0.823 (hr*ng/mL)/mg
- AUC0-∞ [6]: 85 ng·h/mL
- C24 [6]: BLQ
- CL/F [6]: 1280 L/h
- Cmax [6]: 20.1 ng/mL
- Cmax/D [6]: 0.201 (ng/mL)/mg
- t1/2 [6]: 2.36 h
- AUC0-12 [7]: 92.4 ng·h/mL
- AUC0-24 [7]: 99.8 ng·h/mL
- AUC0-24/D [7]: 0.998 (hr*ng/mL)/mg
- AUC0-∞ [7]: 105 ng·h/mL
- C24 [7]: BLQ
- CL/F [7]: 1450 L/h
- Cmax/D [7]: 0.213 (ng/mL)/mg
- t1/2 [7]: 2.49 h
- AUC0-12 [8]: 51.2 ng·h/mL
- AUC0-∞ [8]: 51.7 ng·h/mL
- C12 [8]: BLQ
- CL/F [8]: 1940 L/h
- Cmax [8]: 17.7 ng/mL
- Cmax/D [8]: 0.177 (ng/mL)/mg
- t1/2 [8]: 1.37 h
- AUC0-12 [9]: 55.5 ng·h/mL
- AUC0-∞ [9]: 55.9 ng·h/mL
- C12 [9]: BLQ
- CL/F [9]: 2100 L/h
- Cmax [9]: 18.4 ng/mL
- Cmax/D [9]: 0.184 (ng/mL)/mg
- t1/2 [9]: 1.42 h
- AUC0-12 [10]: 136 ng·h/mL
- AUC0-24 [10]: 214 ng·h/mL
- AUC0-24/D [10]: 1.07 (hr*ng/mL)/mg
- AUC0-∞ [10]: 152 ng·h/mL
- CL/F [10]: 658 L/h
- Cmax [10]: 39.8 ng/mL
- Cmax/D [10]: 0.398 (ng/mL)/mg
- t1/2 [10]: 1.82 h
- AUC0-12 [11]: 143 ng·h/mL
- AUC0-24 [11]: 226 ng·h/mL
- AUC0-24/D [11]: 1.13 (hr*ng/mL)/mg
- AUC0-∞ [11]: 156 ng·h/mL
- CL/F [11]: 675 L/h
- Cmax [11]: 44.1 ng/mL
- Cmax/D [11]: 0.441 (ng/mL)/mg
- t1/2 [11]: 1.87 h
- AUC0-12 [12]: 127 ng·h/mL
- AUC0-∞ [12]: 137 ng·h/mL
- C12 [12]: BLQ
- CL/F [12]: 788 L/h
- Cmax [12]: 29.8 ng/mL
- Cmax/D [12]: 0.298 (ng/mL)/mg
- t1/2 [12]: 2.82 h
- AUC0-12 [13]: 129 ng·h/mL
- AUC0-∞ [13]: 139 ng·h/mL
- C12 [13]: BLQ
- CL/F [13]: 800 L/h
- Cmax [13]: 31.3 ng/mL
- Cmax/D [13]: 0.313 (ng/mL)/mg
- t1/2 [13]: 2.86 h
- AUC0-12 [14]: 142 ng·h/mL
- AUC0-24 [14]: 278 ng·h/mL
- AUC0-24/D [14]: 1.39 (hr*ng/mL)/mg
- AUC0-∞ [14]: 168 ng·h/mL
- C12 [14]: 6.27 ng/mL
- CL/F [14]: 699 L/h
- Cmax [14]: 25.8 ng/mL
- Cmax/D [14]: 0.258 (ng/mL)/mg
- t1/2 [14]: 3.52 h
- AUC0-12 [15]: 145 ng·h/mL
- AUC0-24 [15]: 282 ng·h/mL
- AUC0-24/D [15]: 1.41 (hr*ng/mL)/mg
- AUC0-∞ [15]: 173 ng·h/mL
- CL/F [15]: 717 L/h
- Cmax/D [15]: 0.284 (ng/mL)/mg
- t1/2 [15]: 3.80 h
- AUC0-12 [16]: 114 ng·h/mL
- AUC0-24 [16]: 121 ng·h/mL
- AUC0-24/D [16]: 1.21 (hr*ng/mL)/mg
- AUC0-∞ [16]: 121 ng·h/mL
- C12 [16]: BLQ
- C24 [16]: BLQ
- CL/F [16]: 874 L/h
- Cmax [16]: 28.5 ng/mL
- Cmax/D [16]: 0.285 (ng/mL)/mg
- t1/2 [16]: 2.64 h
- AUC0-12 [17]: 115 ng·h/mL
- AUC0-24 [17]: 122 ng·h/mL
- AUC0-24/D [17]: 1.22 (hr*ng/mL)/mg
- AUC0-∞ [17]: 122 ng·h/mL
- C12 [17]: BLQ
- C24 [17]: BLQ
- CL/F [17]: 880 L/h
- Cmax [17]: 30.0 ng/mL
- Cmax/D [17]: 0.300 (ng/mL)/mg
- t1/2 [17]: 2.73 h
- Mean CL/F, Day 1 (200 mg KAR5585 BID, fed): 830 L/h
- Mean steady-state CL/F, Day 14 (200 mg KAR5585 BID, fed): 1200 L/h
- mean Cmax plasma concentrations, range on all dosing days (200 mg KAR5585 BID, fed, Cohort 3): 42.6 to 90.9 ng/mL
- AUC0-12 [18]: 243 ng·h/mL
- AUC0-∞ [18]: 258 ng·h/mL
- C12 [18]: 5.60 ng/mL
- CL/F [18]: 774 L/h
- Cmax [18]: 80.7 ng/mL
- Cmax/D [18]: 0.403 (ng/mL)/mg
- t1/2 [18]: 2.81 h
- AUC0-12 [19]: 257 ng·h/mL
- AUC0-∞ [19]: 275 ng·h/mL
- C12 [19]: 5.61 ng/mL
- CL/F [19]: 830 L/h
- Cmax [19]: 87.8 ng/mL
- Cmax/D [19]: 0.439 (ng/mL)/mg
- t1/2 [19]: 2.91 h
- AUC0-12 [20]: 333 ng·h/mL
- AUC0-24 [20]: 583 ng·h/mL
- AUC0-24/D [20]: 1.46 (hr*ng/mL)/mg
